Calls of active or inactive are those of the source.
Experiments:
Bcl-2-related protein A1 [1] = biological target: T1, Bcl-2-related protein A1 (Mus musculus, UniProt Q07440); experiment: Bfl-1 binding inhibitors, SAR follow-up, biochemical, fluorescence polarization (AID 1070)
T1 sequence (Q07440 whole entry): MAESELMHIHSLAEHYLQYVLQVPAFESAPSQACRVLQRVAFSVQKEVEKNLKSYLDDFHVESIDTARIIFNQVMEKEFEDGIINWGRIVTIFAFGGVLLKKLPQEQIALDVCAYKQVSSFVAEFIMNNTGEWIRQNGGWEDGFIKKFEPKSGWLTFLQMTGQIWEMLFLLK

[2] = biological target: Glyceraldehyde-3-phosphate dehydrogenase (Homo sapiens, UniProt P04406)
Bcl-2-related protein A1 [3] = biological target: T1, Bcl-2-related protein A1; experiment: Bfl-1 inhibitors blocking BH3 peptide binding, confirmation, biochemical, TR-FRET, mouse Bfl-1 (AID 621);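 note: TR-FRET binding of GST-Bfl-1 to FITC-labelled Bid peptide via terbium antibody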
[4] = biological target: Solute carrier family 12 member 2/member 5 (Homo sapiens, UniProt P55011+Q9H2X9); experiment: KCC2 and NKCC1 inhibition by rubidium flux, cell-based, NKCC1 counter-screen (AID 1734); type: functional, HEK293
[5] = biological target: T2, Carboxy-terminal domain RNA polymerase II polypeptide A small phosphatase 1 (Homo sapiens, UniProt Q9GZU7); experiment: inhibitors of CTDSP1, concentration-response testing, biochemical assay, absorbance-based, actives from ultra-high-throughput screening (AID 540297); type: functional
T2 sequence (Q9GZU7 whole entry): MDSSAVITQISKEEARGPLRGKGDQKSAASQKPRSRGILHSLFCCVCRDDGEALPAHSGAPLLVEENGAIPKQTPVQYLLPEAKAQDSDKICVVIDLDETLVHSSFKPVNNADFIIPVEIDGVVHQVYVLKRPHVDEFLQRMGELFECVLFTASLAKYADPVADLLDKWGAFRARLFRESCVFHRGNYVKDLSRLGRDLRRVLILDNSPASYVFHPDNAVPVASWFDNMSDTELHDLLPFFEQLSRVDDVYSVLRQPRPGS

[6] = biological target: T3, Induced myeloid leukemia cell differentiation protein Mcl-1 (Homo sapiens, UniProt Q07820); experiment: MCL1-BIM BH3 interaction inhibitors, dose response, biochemical, fluorescence polarization, BIM-BH3 peptide, 1536-well (AID 2217)
Bcl-2-like protein 1 = Bcl-2-like protein 1 (Homo sapiens, UniProt Q07817); experiment: BCL-XL inhibitors, dose response, selectivity assay for MCL1 inhibitor project, biochemical, fluorescence polarization, 1536-well (AID 2218)
[7] = biological target: T3, Induced myeloid leukemia cell differentiation protein Mcl-1; type: functional
Vero = experiment: cytotoxicity of synthesized analogs in Vero cells, SAR follow-up, cytotoxicity control for West Nile virus antiviral project, cell-based, set II (AID 2402); type: functional; details: Chlorocebus sabaeus
[8] = biological target: T4, Tyrosine-protein phosphatase non-receptor type 7 (Homo sapiens, UniProt P35236); experiment: inhibitors of human HePTP phosphatase, […], biochemical, absorbance, leukemia target (AID 521); type: functional
T4 sequence (P35236 whole entry): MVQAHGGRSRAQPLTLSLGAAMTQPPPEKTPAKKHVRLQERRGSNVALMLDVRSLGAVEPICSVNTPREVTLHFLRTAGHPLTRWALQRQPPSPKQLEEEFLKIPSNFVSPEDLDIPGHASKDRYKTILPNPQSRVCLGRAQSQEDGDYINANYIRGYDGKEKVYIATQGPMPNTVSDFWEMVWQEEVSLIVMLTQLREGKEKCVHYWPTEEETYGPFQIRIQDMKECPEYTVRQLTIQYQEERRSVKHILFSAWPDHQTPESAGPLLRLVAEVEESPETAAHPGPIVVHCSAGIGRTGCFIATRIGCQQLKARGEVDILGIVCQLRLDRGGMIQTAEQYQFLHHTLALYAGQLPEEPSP

Cytochrome P450 2C19 = Cytochrome P450 2C19 (Homo sapiens, UniProt P33261); experiment: qHTS Assay for Inhibitors and Substrates of Cytochrome P450 2C19. [Related pubchem assays: 410 ]; type: ADME; details: read-out: Potency
Cytochrome P450 2C9 = Cytochrome P450 2C9 (Homo sapiens, UniProt P11712); details: Potency
[9] = biological target: Inward rectifier potassium channel 2 (Mus musculus, UniProt P35561); experiment: Manual electrophysiological patch clamp assay for SAR compounds that inhibit/block inward-rectifying potassium ion channel Kir2.1. [Related pubchem assays: 1843 (Summary assay for Kir2.1 inhibitor assays.), 1672 (Primary HTS of 305616 compounds where 2592 were identified as active.)]; type: functional
NADPH oxidase 1 [10] = biological target: T5, NADPH oxidase 1 (Homo sapiens, UniProt Q9Y5S8); experiment: Late-stage luminescence-based cell-based dose response assay to identify inhibitors of NADPH oxidase 1 (NOX1): Synthesized analogs 2.; type: functional
NADPH oxidase 1 [11] = biological target: T5, NADPH oxidase 1; type: functional, cell-based
[12] = Luminescence Cell-Based Dose Retest to Confirm Inhibitors of Cancer Stem Cells. [Related pubchem assays (depositor defined):AID2717, AID2721]; type: functional; details: Homo sapiens
[13] = biological target: Aryl hydrocarbon receptor (Homo sapiens, UniProt P35869); experiment: Luminescence-based cell-based high throughput dose response assay for activators of the Aryl Hydrocarbon Receptor (AHR). [Related pubchem assays: 2796 (Primary screen (AHR activators in singlicate)), 2845 (Confirmation screen (AHR activators in triplicate)), 434939 (Counterscreen (PXR activators in triplicate)), 2804 (Summary (AHR activators))]; type: ADME
[14] = HEp-2 cell cytotoxicity, dose response, cytotoxicity control for RSV inhibitor project, HTS (AID 2410); type: functional; details: human respiratory syncytial virus
Genome polyprotein = Genome polyprotein (Hepatitis C virus, UniProt Q2Q167); experiment: HCV core protein dimerization inhibitors, dose response, biochemical, TR-FRET (AID 2159); parameters: species or system Hepacivirus hominis;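 note: blocks dimerization of HCV core protein measured by TR-FRET between tagged core106 pairs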
[15] = THP-1 cell cytotoxicity, dose response, cytotoxicity control for Vif-APOBEC3G degradation inhibitor project, THP-1 cells (AID 1117359); type: functional; details: Human immunodeficiency virus 1, THP-1
[16] = biological target: Sphingosine 1-phosphate receptor 2 (Homo sapiens, UniProt O95136); experiment: Dose Response Cell Based Assay for Agonists of the S1P2 Receptor of Purchased Analogues. [Related pubchem assays: 729, 843, 854, 736 ]; type: functional
[17] = M. tuberculosis growth inhibition, HTS (AID 449762); type: functional
Oxytocin receptor = Oxytocin receptor (Homo sapiens, UniProt P30559); experiment: Fluorescence-based cell-based high throughput dose response assay for potentiators of Oxytocin Receptor (OXTR). [Related pubchem assays: 434985 (Confirmation screen (OXTR potentiators in triplicate)), 2481 (Summary (OXTR potentiators)), 2445 (Primary screen (OXTR potentiators in singlicate))]; type: functional
Chain of Oxytocin receptor (P30559 whole entry): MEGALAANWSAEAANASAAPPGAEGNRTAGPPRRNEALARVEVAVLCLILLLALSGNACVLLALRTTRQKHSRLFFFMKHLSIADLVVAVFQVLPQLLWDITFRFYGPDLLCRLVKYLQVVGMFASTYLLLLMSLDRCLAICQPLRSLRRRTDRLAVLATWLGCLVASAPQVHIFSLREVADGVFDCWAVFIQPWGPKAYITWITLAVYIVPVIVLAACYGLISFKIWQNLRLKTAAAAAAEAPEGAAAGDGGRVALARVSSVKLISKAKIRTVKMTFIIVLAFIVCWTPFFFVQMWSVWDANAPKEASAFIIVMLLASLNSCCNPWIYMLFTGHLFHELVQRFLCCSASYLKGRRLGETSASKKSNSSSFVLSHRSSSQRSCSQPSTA

T3 sequence (Q07820 whole entry): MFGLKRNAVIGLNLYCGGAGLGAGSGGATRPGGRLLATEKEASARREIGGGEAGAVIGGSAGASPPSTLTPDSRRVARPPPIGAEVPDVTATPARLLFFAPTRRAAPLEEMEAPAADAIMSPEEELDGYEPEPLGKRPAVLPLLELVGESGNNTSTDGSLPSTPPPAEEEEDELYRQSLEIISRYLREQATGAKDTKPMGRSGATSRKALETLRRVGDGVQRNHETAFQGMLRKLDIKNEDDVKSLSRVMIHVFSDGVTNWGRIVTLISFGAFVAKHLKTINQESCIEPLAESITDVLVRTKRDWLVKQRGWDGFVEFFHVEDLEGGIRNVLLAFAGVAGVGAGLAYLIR
T5 sequence (Q9Y5S8 whole entry): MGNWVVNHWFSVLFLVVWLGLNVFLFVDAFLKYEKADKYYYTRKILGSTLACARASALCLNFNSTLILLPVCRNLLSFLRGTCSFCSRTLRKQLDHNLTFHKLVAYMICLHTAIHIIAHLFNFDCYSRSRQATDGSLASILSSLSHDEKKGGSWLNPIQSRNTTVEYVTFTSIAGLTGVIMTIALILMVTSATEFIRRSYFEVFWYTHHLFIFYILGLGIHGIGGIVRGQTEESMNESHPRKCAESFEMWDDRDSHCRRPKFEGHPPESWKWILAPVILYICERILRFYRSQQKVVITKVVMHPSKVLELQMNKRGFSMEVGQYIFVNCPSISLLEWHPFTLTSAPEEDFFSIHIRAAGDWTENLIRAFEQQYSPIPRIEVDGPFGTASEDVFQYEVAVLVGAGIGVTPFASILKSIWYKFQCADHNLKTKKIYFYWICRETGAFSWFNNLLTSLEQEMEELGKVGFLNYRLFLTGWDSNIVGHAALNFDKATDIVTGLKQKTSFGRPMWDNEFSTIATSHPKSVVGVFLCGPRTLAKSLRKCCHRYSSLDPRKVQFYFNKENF
Chain of Cytochrome P450 2C9 (P11712 whole entry): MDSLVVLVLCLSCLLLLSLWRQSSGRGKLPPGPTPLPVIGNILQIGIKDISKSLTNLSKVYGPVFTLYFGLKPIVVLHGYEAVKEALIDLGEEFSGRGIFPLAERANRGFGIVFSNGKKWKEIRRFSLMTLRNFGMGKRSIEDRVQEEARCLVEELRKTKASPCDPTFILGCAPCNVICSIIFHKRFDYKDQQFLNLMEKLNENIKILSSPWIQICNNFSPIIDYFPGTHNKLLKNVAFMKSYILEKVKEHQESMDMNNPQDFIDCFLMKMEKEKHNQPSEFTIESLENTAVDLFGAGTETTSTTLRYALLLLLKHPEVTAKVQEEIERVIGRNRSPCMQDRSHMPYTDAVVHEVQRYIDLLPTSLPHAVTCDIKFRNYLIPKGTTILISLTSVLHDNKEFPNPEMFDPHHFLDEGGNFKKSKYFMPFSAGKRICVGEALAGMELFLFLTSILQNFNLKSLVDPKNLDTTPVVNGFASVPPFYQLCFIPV
Chain of Glyceraldehyde-3-phosphate dehydrogenase (P04406 whole entry): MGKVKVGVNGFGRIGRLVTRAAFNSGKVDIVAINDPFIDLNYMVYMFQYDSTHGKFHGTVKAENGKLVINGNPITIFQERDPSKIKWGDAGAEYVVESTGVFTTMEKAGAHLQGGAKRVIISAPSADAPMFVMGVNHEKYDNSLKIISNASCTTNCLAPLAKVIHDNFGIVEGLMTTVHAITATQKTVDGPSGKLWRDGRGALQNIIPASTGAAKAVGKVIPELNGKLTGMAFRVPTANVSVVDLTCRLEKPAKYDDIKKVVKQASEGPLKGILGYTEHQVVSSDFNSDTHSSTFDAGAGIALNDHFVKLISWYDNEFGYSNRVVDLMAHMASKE
Chain of Cytochrome P450 2C19 (P33261 whole entry): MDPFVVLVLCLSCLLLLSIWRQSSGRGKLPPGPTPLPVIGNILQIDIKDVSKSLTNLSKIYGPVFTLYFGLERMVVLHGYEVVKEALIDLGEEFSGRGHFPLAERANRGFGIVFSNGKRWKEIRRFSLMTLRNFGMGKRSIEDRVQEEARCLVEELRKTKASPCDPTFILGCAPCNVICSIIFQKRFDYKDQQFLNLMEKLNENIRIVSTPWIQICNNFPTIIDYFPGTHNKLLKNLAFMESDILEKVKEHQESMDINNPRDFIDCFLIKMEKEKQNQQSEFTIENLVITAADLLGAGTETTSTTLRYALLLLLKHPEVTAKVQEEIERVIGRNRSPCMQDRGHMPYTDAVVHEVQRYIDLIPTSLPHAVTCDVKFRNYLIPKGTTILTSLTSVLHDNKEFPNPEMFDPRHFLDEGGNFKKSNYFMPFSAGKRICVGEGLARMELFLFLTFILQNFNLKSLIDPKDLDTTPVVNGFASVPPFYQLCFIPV
Chain of Inward rectifier potassium channel 2 (P35561 whole entry): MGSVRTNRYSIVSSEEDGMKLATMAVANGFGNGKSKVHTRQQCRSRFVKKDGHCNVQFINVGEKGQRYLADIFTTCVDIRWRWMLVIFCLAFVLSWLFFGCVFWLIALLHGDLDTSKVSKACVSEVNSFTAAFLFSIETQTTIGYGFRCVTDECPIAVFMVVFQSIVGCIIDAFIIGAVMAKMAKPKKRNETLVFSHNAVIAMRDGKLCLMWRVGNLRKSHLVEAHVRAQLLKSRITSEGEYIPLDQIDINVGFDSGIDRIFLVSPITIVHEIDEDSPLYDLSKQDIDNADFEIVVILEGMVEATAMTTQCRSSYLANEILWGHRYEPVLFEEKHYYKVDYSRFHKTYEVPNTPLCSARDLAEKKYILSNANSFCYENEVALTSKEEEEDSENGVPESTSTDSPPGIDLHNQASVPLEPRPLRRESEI
Chain of Bcl-2-like protein 1 (Q07817 whole entry): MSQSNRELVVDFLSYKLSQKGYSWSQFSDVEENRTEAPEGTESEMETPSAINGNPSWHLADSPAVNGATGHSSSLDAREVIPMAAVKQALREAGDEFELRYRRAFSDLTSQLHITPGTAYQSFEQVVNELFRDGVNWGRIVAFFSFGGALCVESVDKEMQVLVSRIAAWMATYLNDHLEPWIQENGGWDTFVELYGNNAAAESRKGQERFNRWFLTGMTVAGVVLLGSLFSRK
Chain of Aryl hydrocarbon receptor (P35869 whole entry): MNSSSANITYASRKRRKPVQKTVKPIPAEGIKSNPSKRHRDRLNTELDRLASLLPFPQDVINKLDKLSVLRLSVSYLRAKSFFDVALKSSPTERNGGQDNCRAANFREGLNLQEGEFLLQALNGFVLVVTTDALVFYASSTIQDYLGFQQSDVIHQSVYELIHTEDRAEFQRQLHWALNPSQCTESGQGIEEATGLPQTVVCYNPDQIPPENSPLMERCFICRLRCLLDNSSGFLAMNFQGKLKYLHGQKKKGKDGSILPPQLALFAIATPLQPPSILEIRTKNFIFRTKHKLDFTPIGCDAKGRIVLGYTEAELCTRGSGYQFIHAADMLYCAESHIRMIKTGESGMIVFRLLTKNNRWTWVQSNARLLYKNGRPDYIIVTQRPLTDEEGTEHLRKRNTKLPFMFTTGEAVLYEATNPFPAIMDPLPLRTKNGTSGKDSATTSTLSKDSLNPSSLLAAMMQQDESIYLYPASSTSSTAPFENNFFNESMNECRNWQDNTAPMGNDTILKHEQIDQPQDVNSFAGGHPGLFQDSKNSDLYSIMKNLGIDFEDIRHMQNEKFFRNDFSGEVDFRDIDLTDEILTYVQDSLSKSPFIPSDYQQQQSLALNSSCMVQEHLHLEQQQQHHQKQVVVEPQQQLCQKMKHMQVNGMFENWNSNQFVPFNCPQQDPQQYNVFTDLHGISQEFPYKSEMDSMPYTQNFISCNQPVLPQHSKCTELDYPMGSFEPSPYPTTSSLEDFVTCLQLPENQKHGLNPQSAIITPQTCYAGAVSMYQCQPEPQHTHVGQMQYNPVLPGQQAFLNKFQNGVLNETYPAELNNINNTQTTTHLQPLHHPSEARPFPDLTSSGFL
Chain of Sphingosine 1-phosphate receptor 2 (O95136 whole entry): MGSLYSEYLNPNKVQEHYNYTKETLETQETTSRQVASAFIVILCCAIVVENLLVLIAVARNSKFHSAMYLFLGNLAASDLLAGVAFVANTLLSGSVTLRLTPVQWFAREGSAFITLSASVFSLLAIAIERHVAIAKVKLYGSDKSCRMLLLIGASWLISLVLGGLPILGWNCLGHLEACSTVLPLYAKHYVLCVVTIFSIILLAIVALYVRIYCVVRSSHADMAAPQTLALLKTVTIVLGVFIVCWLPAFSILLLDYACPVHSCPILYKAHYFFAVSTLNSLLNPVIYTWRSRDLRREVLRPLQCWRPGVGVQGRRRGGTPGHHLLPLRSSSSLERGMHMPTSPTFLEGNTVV
Chain of Genome polyprotein (Q2Q167 whole entry): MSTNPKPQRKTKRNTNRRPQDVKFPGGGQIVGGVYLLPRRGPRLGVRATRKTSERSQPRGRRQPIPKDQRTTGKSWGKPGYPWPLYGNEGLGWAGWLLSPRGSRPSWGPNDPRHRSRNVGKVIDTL

CN1CCN(C2=CC(=O)N(c3ccc(Cl)cc3)C2=O)CC1
IC50 (Bcl-2-related protein A1 [1]): > 100 µM (not active)
IC50 [2]: > 100 µM (not active)
IC50 (Bcl-2-related protein A1 [3]): > 100 µM (not active)

O=C(O)CCn1c(SCc2cccc3ccccc23)nc2ccccc21
IC50 [4]: 36 µM (active)

O=C(/C=C/c1ccc(Cl)c([N+](=O)[O-])c1)Nc1ccc(N2CCCC2)cc1
IC50 [5]: 3.29 µM (active)
IC50 [6]: 20.9 µM (not active)
IC50 (Bcl-2-like protein 1): > 109 µM (not active)
IC50 [7]: > 54 µM (active)

O=c1c2cc([N+](=O)[O-])ccc2nc2n1CCC2
CC50 (Vero): > 100 µM (active)

Brc1ccc(-c2nnc3sc(CNC4CCCC4)cn23)cc1
IC50 [8]: > 100 µM (not active)

CC1=C(\C=C/C(C)=C/C=C\C(C)=C\C(=O)Nc2ccc(O)cc2)C(C)(C)CCC1
AC50 (Cytochrome P450 2C19): 31.6 µM (inconclusive)
AC50 (Cytochrome P450 2C9): 7.94 µM (inconclusive)

COc1ccc(CNCc2ccccc2Cl)cc1
IC50 [9]: 13.3 µM (active)

ClCCN1c2ccccc2Sc2ccc(Cl)cc21
IC50 (NADPH oxidase 1 [10]): > 50 µM (not active)

COc1ccc(NC(=O)Nc2ccc3c(c2)CCN3C(C)=O)cc1
IC50 (NADPH oxidase 1 [11]): > 17 µM (not active)

COc1cc2c(cc1NC(=O)Nc1ccc(C)cc1)oc1ccccc12
AC50 [12]: 1.88 µM (active)
EC50 [13]: 1.47 µM (active)
CC50 [14]: 26.4 µM (active)

CN(CC(=O)Nc1cccc(F)c1)C(=O)c1cccc(-n2cccc2)c1
IC50 (Genome polyprotein): > 49.8 µM (not active)
IC50 [5]: 6.19 µM (active)
CC50 [15]: > 40 µM (active)

CCNC(=O)CN(CC)CC(=O)c1cc(C)n(Cc2ccccc2)c1C
EC50 [16]: > 30 µM (not active)

CC1(CCc2ccccc2)N=C(S)N(c2ccc(Cl)cc2)N1 (centres undefined)
IC50 [17]: > 100 µM (active)

Cc1cc(C)n(-c2cc(C(C)(C)C)nc3c(-c4ccc(Cl)cc4)cnn23)n1
EC50 (Oxytocin receptor): > 29.9 µM (not active)
